Measured values: patent US9700578B2, “Use of nitrite salts for the treatment of cardiovascular conditions” (The United States of America as represented by the …, priority 2003, dated 2017)

What was measured:
[1] = Sodium nitrite infusion into the brachial artery, forearm blood flow by venous-occlusion plethysmography; conditions: human, in vivo
Text: (§1) The protocol was approved by the Institutional Review Board of the National Heart, Lung and Blood Institute, and informed consent was obtained from all volunteer subjects. […] An additional 10 subjects returned three-six months later for a second series of experiments with low dose nitrite infusion. […] No volunteer subject was allowed to take any medication (oral contraceptive agents allowed), vitamin supplements, herbal preparations, nutriceuticals or other “alternative therapies” for at least one month prior to study and were not be allowed to take aspirin for one week prior to study.
(§2) Brachial artery and antecubital vein catheters were placed into the arm, with the intraarterial catheter connected to a pressure transducer for blood pressure measurements and an infusion pump delivering normal saline at 1 mL/min. After 20 minutes of rest, baseline arterial and venous blood samples were obtained and forearm blood flow measurements were made by strain gauge venous-occlusion plethysmography, as previously reported (Panza et al., Circulation, 87, 1468-74, 1993). A series of 7 blood flow measurements were averaged for each blood flow determination. A series of measurements termed Parts I and II were performed in randomized order to minimize a time effect on the forearm blood flow response during nitrite infusion.
(§3) Part I: Following 20 minutes of 0.9% NaCl (saline) solution infusion at 1 mL/min into the brachial artery, arterial and venous blood samples were obtained for the assays described below and forearm blood flow measured. Exercise was performed by repetitive hand-grip at one-third of the predetermined maximum grip strength using a hand-grip dynamometer (Technical Products Co.) (Gladwin et al., Proc Natl Acad Sci USA, 97, 9943-8, 2000; Gladwin et al., Proc Natl Acad Sci USA, 97, 11482-11487, 2000; Cannon et al., J Clin Invest, 108, 279-87, 2001). Each contraction lasted for 10 seconds followed by relaxation for 5 seconds. Following 5 minutes of exercise, forearm blood flow measurements were obtained during relaxation phases of exercise, and arterial and venous samples collected. Following a 20-minute rest period with continued infusion of saline into the brachial artery, repeated baseline blood samples and forearm blood flow measurements were obtained. L-NMMA was then infused at a rate of 1 mL/min (8 μmol/min) into the brachial artery. Following 5 minutes of L-NMMA infusion, forearm blood flow was measured, and arterial and venous blood samples obtained. Forearm exercise was then initiated in that arm during continued L-NMMA infusion. Forearm blood flow was measured and blood samples obtained after 5 minutes of exercise during continued L-NMMA infusion (FIG. 1).
(§4) Part II: After a 30 minute rest period with continued infusion of saline, baseline measurements were obtained, the saline infusion was then stopped, and infusion of nitrite (NaNO2 36 μmol/ml in 0.9% saline) at 1 ml/min was started. […] For the final 9 subjects studied, 0.01-0.03 mM sodium bicarbonate was added to the normal saline, so as to titrate pH to 7.0-7.4. The nitrite solution was light protected and nitrite levels and free NO gas in solution measured by reductive chemiluminescence after all experiments (Gladwin et al., J Biol Chem, 21, 21, 2002).

forearm circulation = assay: as above
Text: as §1, §2, §3, §4

[2] = system: myocardial ischemia-reperfusion injury
Procedure: Briefly, mice were anesthetized with intraperitoneal injections of ketamine (50 mg/kg) and pentobarbital sodium (50 mg/kg). The animals were then attached to a surgical board with their ventral side up. […] The mice were supplemented with 100% oxygen via the ventilator side port. A median sternotomy was performed using an electric cautery and the proximal left main coronary artery was visualized and completely ligated with 7-0 silk suture mounted on a tapered needle (BV-1 ethicon). In the initial experiments of myocardial infarct size coronary occlusion was maintained for 30-minutes followed by removal of suture and reperfusion for 24 hours. […] In these experiments, two-dimensional echocardiography was performed at baseline and again at 48 hours of reperfusion.
At 24 hours of reperfusion, the mice were anesthetized as described previously, intubated, and connected to a rodent ventilator. A catheter (PE-10 tubing) was placed in the common carotid artery to allow for Evans Blue dye injection. A median sternotomy was performed and the left main coronary artery was re-ligated in the same location as before Evans Blue dye (1.2 mL of a 2.0% solution, Sigma Chemical Co.) was injected into the carotid artery catheter into the heart to delineate the ischemic zone from the nonischemic zone. The heart was rapidly excised and serially sectioned along the long axis in five, 1 mm thick sections that were then incubated in 1.0% 2,3,5-triphenyltetrazolium chloride (Sigma Chemical Co.) for 5 minutes at 37° C. to demarcate the viable and nonviable myocardium within the risk zone.
Ventricular parameters were measured using leading-edge technique. M-mode (sweep speed=200 mm/sec) echocardiograms were captured from parasternal, short and long-axis 2D views of the left ventricle (LV) at the mid-papillary level. LV percent fractional shortening (FS) was calculated according to the following equation: LV % FS=((LVEDD−LVESD)/LVEDD)×100. All data were calculated from 10 cardiac cycles per experiment.

[3] = system: right middle cerebral artery vasospasm
Procedure: An autologous arterial blood clot was placed around the right middle cerebral artery (R MCA) of 14 anesthetized Cynomolgus monkeys at day 0. […] Cerebral arteriogram was performed before clot placement and on days 7 and 14, for assessment of DCV. Arteriographic vasospasm was defined as a 25% or greater reduction in the proximal 14 mm of the R MCA area as measured on the AP projection of the cerebral arteriogram (blinded assessment). Mean arterial blood pressure was measured and blood samples were collected daily from day 0; the cerebral spinal fluid samples were collected on day 0, 7, and 14.

aortic ring preparations = conditions: cited from earlier work
[4] = 48 nmoles into left ventricular cavity 5 min prior to reperfusion, versus 48 nmoles nitrate
[5] = 45 minutes ischemia, 48 hours reperfusion

O=NO [sodium nitrite]
concentration at 5 min ([1]; both, 36 μmol/min, nitrite level in the ipsilateral antecubital vein (regional forearm nitrite concentration), 36 μmol/min into brachial artery, 5 min, 18 healthy subjects): ~222000 nM | concentration at 5 min ([1]; 0.36 μmol/min, mean venous nitrite level after low-dose infusion, at rest, low dose, five-minute infusion, baseline 176±17): 2560 ± 462 nM | concentration at 5 min ([1]; 360 nmoles per minute, forearm nitrite concentration, low dose, at rest, dose reduced 2-logs (360 nmoles per minute)): ~2000 nM | increase in blood flow, low dose (forearm circulation; 360 nmoles per minute): about 22% | forearm blood flow after low-dose nitrite infusion (forearm circulation; 400 nmol/mL at 1 mL/min for five minutes, 10 subjects, baseline 3.49±0.24): 4.51±0.33 ml/min per 100 mL tissue | systemic level of nitrite (contralateral arm) (forearm circulation; 36 μmol/min into brachial artery): 16 µM | decrease of mean blood pressure (forearm circulation; 36 μmol/min into brachial artery, systemic nitrite 16 μM): approximately 7 mm Hg | venous hemoglobin oxygen saturation, pO2 and pH versus pre-infusion values (forearm circulation; 36 μmol/min, 5 min, at rest): significantly increased | forearm nitrite concentration, low dose, at rest (forearm circulation; dose reduced 2-logs (360 nmoles per minute)): 2 µM | forearm nitrite concentration, low dose, during exercise (forearm circulation; dose reduced 2-logs, exercise): 0.9 µM | venous nitrite level after low-dose infusion, during exercise (forearm circulation; low dose, exercise): 909 ± 113 nM | forearm blood flow 30 minutes after cessation of nitrite infusion (forearm circulation; saline for 30 min after infusion, pre-nitrite value 3.94±0.38): 4.79±0.37 mL/min per 100 mL tissue | systemic blood pressure 30 minutes after cessation of nitrite infusion (forearm circulation; saline for 30 min after infusion, pre-nitrite value 89.2±3.5): 82.1±3.7 mm Hg | reduction of myocardial infarct size per area-at-risk [2, 4]: 67% | reduction of myocardial infarct size per left ventricle [2, 4]: 67% | left ventricular fractional shortening versus vehicle group [2, 5]: significantly (p<0.02) greater | myocardial ejection fraction versus baseline [2, 5]: remained essentially unchanged | blood levels of nitrite ([3]; 45 mg/kg and 60 mg/kg per day): 10000 to 60000 nM | increases in blood methemoglobin concentrations ([3]; 45 mg/kg and 60 mg/kg per day): ≤ 2% | methemoglobin formation ([3]; 45 mg/kg and 60 mg/kg per day): < 5% | mean reduction in the R MCA area on day 7 after SAH ([3]; 45 mg/kg and 60 mg/kg per day i.v. for 14 days, saline 45±5): 8±9% | systemic hypotension ([3]; 14 days infusion): without systemic hypotension | toxicity ([3]; 14 days infusion): no clinical or pathological evidence of nitrite toxicity | development of significant vasospasm ([3]; nitrite infused animals, n=6): no animals developed significant vasospasm | nitrite concentration that stimulated vasodilation of aortic ring preparations (aortic ring preparations; Furchgott et al. 1953): 100 µM | levels of nitrite shown to vasodilate in vitro (aortic ring preparations; literature): > 100,000 nM
